This note sets out measurements from US8946224B2, “Substituted [1,2,4]triazolo[4,3-A]pyrazines for medicaments and pharmaceutical compositions” (Redx Pharma Limited, priority 2010, dated 2015).

Non-standard residues stand in square brackets, D forms with d. Residues, ends and D or L forms follow the SMILES beside them. Sta = CC(C)C[C@H](N)[C@@H](O)CC(=O)O

This assay deals with T1, renin (Homo sapiens, UniProt P00797).
T1 sequence (P00797 67-406): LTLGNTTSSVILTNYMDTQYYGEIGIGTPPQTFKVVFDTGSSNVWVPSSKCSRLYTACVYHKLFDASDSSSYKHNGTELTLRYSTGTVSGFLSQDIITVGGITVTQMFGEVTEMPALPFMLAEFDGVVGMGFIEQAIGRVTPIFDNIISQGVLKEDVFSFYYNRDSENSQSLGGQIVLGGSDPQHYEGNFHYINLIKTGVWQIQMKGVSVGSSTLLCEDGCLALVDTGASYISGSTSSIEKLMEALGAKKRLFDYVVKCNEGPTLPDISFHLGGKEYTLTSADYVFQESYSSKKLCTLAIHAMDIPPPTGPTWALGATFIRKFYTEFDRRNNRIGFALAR
The assay can be described thus: Renin inhibition (Comparative Example 98). The assay is classed as biochemical. The protocol: The solutions of the compounds to be tested were prepared in DMSO at a concentration of 10 mM, divided into aliquots and stored at −20° C. The stock solutions were further diluted with assay buffer to make final test solutions. All the final test solutions contained no more than 2.0% DMSO.
Data were recorded by PHEARstar^PLUS.
Each assay was repeated for each compound 10 times.

For the molecule `CC(=O)N[C@@H](Cc1c[nH]cn1)C(=O)N1CCC[C@H]1C(=O)N[C@@H](Cc1ccccc1)C(=O)N[C@H](C(=O)N[C@@H](CC(C)C)[C@@H](O)CC(=O)N[C@@H](CC(C)C)C(=O)N[C@@H](Cc1ccccc1)C(N)=O)C(C)C` [Positive control, Ac-HPFV-(Sta)-LF-NH2] (Ac-HPFV[Sta]LF-NH2), the IC50 was found to be 8.4 nM.
